Measurements published in paper PMC11088877, “AMP-activated protein kinase can be allosterically activated by ADP but AMP remains the key activating ligand” (Biochemical Journal, 2024).
Values joined by “and” are separate entries in the source; they are usually repeats but may differ in a detail not shown here. Equal values may be shown once.

Legend:
Assay type in all cases: biochemical
[1] = molecular target: T1, human α2β2γ1 complex, CBS3 mutant (V276G/L277G) (Homo sapiens, UniProt P54619+P54646, L277G/V276G); experiment: Allosteric activation of CBS3 mutant human α2β2γ1 AMPK complex
T1 construct: made in house; host or cells: Escherichia coli
Source text: To study allosteric activation with a more well-defined AMPK complex, and to study the effects of mutations in individual adenine nucleotide-binding sites on the γ subunit, we expressed a human α2β2γ1 complex in Escherichia coli and purified it utilizing the polyhistidine tag at the N-terminus of the α2 subunit. […] However, it had not been co-expressed with an N-myristoyl transferase so would not have been N-myristoylated on the β2 subunit. The complex was expressed not only with the WT γ1 sequence but also with mutations affecting hydrophobic residues previously shown to be involved in binding of the adenine moieties of nucleotides at CBS1 (L129D/V130D), CBS3 (V276G/L277G) and CBS4 (I312G). All four complexes co-purified as heterotrimeric 1:1:1 complexes as expected, and were phosphorylated and activated equally well either by CaMKK2 or the LKB1: STRADα:MO25α complex (Supplementary Figure S2). For the studies described below we phosphorylated Thr172 using a GST-tagged CaMKK2 and repurified AMPK using size exclusion chromatography and a glutathione-Sepharose column, which remove CaMKK2.
Figure 4. Allosteric activation of WT and mutant human α2β2γ1 AMPK complex by AMP and ADP at three different concentrations of ATP. The α2β2γ1 complex was phosphorylated on Thr172 prior to assay using CaMKK2. The γ1 subunit was either (A/E): WT; (B/F): a CBS1 mutant (L129D/V130D); (C/G): a CBS3 mutant (V276G/L277G); (D/H): a CBS4 mutant (I312G). Results are means of duplicate assays ± SD; error bars are not shown if they were smaller than the symbols used for mean values. Assays and curve fitting were as in Figure 1 at either 0.2 mM (left panels) or 5 mM (right panels) ATP. Best-fit values for all parameters used to generate the curves are listed in Supplementary Table S1.
Sources of antibodies were as described: pThr172 (AMPK-α: Cell Signaling Technologies, Danvers, MA, U.S.A., Cat# 2535), AMPK-α2 [22]. Rat liver AMPK was purified as described previously. Plasmid encoding human (His)6-tagged AMPK (α2β2γ1, bacterially expressed) generated as in [23], was a gift from AstraZeneca, Cambridge, U.K. The L129D/V130D (CBS1), V276G/L277G (CBS3) and I312G (CBS4) mutations in the α2β2γ1 complex were generated using the Quikchange II site-directed mutagenesis kit (Agilent Technologies) and confirmed by DNA sequencing. Human GST-tagged α2 kinase domain (1–310), LKB1:STRAD-α:MO25-α complexes, GST-tagged CaMKK2 [26], and PPM1A (PP2Cα) were produced as described. Bacterially expressed heterotrimers were activated by phosphorylation of Thr172 by GST-tagged CaMKK2 in the presence of ATP, and CaMKK2 was subsequently removed by passage through glutathione-Sepharose. Human GST-tagged α2 kinase domain was activated in a similar manner except that human (His)6-tagged LKB1:STRAD-α:MO25-α complex was used and removed after activation via passage through a His-Trap column. Recombinant human 5′-nucleotidase, CD73, Cat # 5795-EN-01, was from R&D systems (Minneapolis, MN, U.S.A.).
AMPK assays measured the transfer of radioactivity from [γ-^33P]ATP to a peptide substrate, which was separated from unreacted ATP by binding to P81 paper. This assay was described previously except that we used [γ-^33P] rather than [γ-^32P]ATP. In some assays (specified in Figure legends) the concentration of ATP was increased from 0.2 to 1 or 5 mM ATP, with MgCl2 concentrations maintained at a constant 4.8 mM excess above the concentration of ATP [19]. Where allosteric activation by AMP or ADP was being studied, we used the SAMS peptide as substrate. For all other assays the AMARA peptide was used.

[2] = molecular target: T2, unphosphorylated human α2β2γ1 complex (WT) (Homo sapiens, UniProt P54619+P54646); experiment: AMPK activation and Thr172 phosphorylation by the LKB1:STRADα:MO25α complex, WT; settings: 300 µM nucleotide, 200 µM Mg.ATP2−
T2 construct: made in house; host or cells: Escherichia coli
Experimental: (§1) The relative roles of the three CBS sites in the other two mechanisms of activation of AMPK by AMP or ADP, i.e. promotion of Thr172 phosphorylation by LKB1, and protection against Thr172 dephosphorylation by protein phosphatases, have not been examined previously. As expected, incubation of the α2β2γ1 AMPK complex with a fixed, limiting amount of purified LKB1:STRADα:MO25α complex in the presence of 200 µM Mg.ATP^2− caused a large degree of activation (Figure 5A) and phosphorylation (Figure 5B) of AMPK (unphosphorylated α2β2γ1 complex), which were stimulated more than 2-fold by 300 µM AMP and 1.6-fold by 300 µM ADP.
(§2) Figure 5. Effects of AMP or ADP on AMPK activation and Thr172 phosphorylation by the LKB1:STRADα:MO25α complex. Unphosphorylated human α2β2γ1 complexes (WT, or with L129D/V130D, V276G/L277G or I312G mutations affecting CBS1, CBS3 or CBS4 respectively) were incubated with ATP and a fixed concentration of the LKB1:STRADα:MO25α complex in the presence or absence of AMP or ADP (both 300 µM), as described in the Materials and methods section. After the incubation aliquots were withdrawn for (A) AMPK assay or (B) Western blots. […] For (B), due to a limit on the number of lanes that could be run on one gel, single replicates from the triplicate assays were analysed. […]

[3] = molecular target: T1, human α2β2γ1 complex, CBS3 mutant (V276G/L277G); experiment: AMPK activation and Thr172 phosphorylation by the LKB1 complex, CBS3 mutant; settings: 300 µM nucleotide, 200 µM ATP
Experimental: as §1, §2

T1 sequence (P54619 whole entry V276G/L277G): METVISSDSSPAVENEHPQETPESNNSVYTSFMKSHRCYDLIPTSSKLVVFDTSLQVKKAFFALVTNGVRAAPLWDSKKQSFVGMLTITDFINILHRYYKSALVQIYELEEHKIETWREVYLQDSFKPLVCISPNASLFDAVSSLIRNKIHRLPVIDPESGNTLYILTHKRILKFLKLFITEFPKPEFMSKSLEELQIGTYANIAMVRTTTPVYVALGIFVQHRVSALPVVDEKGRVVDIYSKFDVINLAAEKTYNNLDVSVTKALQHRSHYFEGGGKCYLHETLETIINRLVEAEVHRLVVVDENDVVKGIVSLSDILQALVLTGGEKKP
T1 sequence (P54646 whole entry): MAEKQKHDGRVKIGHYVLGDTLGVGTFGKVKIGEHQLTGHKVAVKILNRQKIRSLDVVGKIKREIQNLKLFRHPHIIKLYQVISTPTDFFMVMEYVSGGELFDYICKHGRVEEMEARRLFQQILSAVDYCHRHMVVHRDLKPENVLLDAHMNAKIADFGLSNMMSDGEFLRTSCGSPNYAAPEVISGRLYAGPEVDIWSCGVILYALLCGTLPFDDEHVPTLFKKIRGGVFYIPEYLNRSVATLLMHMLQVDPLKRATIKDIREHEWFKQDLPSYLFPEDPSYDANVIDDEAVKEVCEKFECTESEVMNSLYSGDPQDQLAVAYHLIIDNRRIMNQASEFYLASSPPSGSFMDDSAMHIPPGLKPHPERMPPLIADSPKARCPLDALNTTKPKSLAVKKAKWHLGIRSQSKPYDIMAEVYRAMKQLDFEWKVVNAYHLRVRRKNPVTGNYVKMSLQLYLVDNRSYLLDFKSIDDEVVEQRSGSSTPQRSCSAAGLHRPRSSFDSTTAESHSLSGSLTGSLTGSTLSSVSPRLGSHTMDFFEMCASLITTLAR
T1 sequence (O43741 whole entry partner): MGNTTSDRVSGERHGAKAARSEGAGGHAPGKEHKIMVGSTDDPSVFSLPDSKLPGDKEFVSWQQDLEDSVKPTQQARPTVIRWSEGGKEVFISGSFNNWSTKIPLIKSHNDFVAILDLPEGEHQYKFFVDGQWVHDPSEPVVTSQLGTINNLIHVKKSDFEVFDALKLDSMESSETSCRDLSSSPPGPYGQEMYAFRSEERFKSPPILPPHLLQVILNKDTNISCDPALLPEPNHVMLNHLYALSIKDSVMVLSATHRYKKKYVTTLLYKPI
T2 sequence (P54619 whole entry): as the sequence (P54619 whole entry V276G/L277G) above, with G276V, G277L counted along it
T2 sequence (P54646 whole entry): as the sequence (P54646 whole entry) above
T2 sequence (O43741 whole entry partner): as the sequence (O43741 whole entry partner) above

Compound	Activation (maximal) ([1]; α2β2γ1 CBS3 mutant, 0.2 mM ATP)	IC50 ([1]; α2β2γ1 CBS3 mutant, 0.2 mM ATP)	Activation (maximal) ([1]; α2β2γ1 CBS3 mutant, 5.0 mM ATP)	IC50 ([1]; α2β2γ1 CBS3 mutant, 5.0 mM ATP)	stimulation of activation and phosphorylation of AMPK by LKB1:STRADα:MO25α complex [2]	effect of nucleotide on activation/phosphorylation by LKB1 in the mutant [3]	increase of EC50 relative to WT ([1]; α2β2γ1 CBS3 mutant vs WT, 5 mM ATP)	EC50 ([1]; α2β2γ1 CBS3 mutant, 0.2 mM ATP)	IC50/EC50 ([1]; α2β2γ1 CBS3 mutant, 0.2 mM ATP)	activation over basal remaining ([1]; α2β2γ1 CBS3 mutant, 0.2 mM ATP)	EC50 ([1]; α2β2γ1 CBS3 mutant, 5.0 mM ATP)	IC50/EC50 ([1]; α2β2γ1 CBS3 mutant, 5.0 mM ATP)
Nc1ncnc2c1ncn2[C@@H]1O[C@H](COP(=O)(O)OP(=O)(O)O)[C@@H](O)[C@H]1O [ADP]	did not cause allosteric activation and none	0.5 mM	essentially abolished allosteric activation	7.6 mM	1.6 fold	abolished	–	–	–	–	–	–
Nc1ncnc2c1ncn2[C@@H]1O[C@H](COP(=O)(O)O)[C@@H](O)[C@H]1O [AMP]	1.2 (1.1-1.2) fold	6.1 mM	2.0- to 2.5 fold and 2.3 (2.1-2.7) fold	40 mM	more than 2 fold	abolished	10- to 20 fold	0.0029 mM	2100	20%	0.37 mM	110
